In patent US20130178441A1, “Methods for Extending Progression-Free Survival using 10-Propargyl-10-Deazaaminopterin” (ALLOS THERAPEUTICS, INC., priority 2010, published 2013):
“And” between values parts separate entries of the source, which are not always exact repeats. Equal entries are not always repeated. Marks after values point to notes of the source that are not given here.

Tests used:
Format in all cases: in vivo, human
[1] = tested on: relapsed or refractory peripheral T-cell lymphoma (PTCL); experiment: PROPEL (PDX-008) pivotal trial of pralatrexate, overall population (N=109)
From the text: Pralatrexate was approved under the provisions of accelerated approval is the United States for the treatment of patients with relapsed/refractory PTCL based on the results of the pivotal trial PROPEL (Pralatrexate in Patients with Relapsed Or Refractory Peripheral T-cell Lymphoma). The primary endpoint, objective response rate (ORR) by independent central review using International Workshop Criteria, was 29% (32/109), including 11% complete response/complete response unconfirmed (CR/CRu) with a median duration of response of 10.1 months. The ORR by investigator assessment was 39% (43/109), including 18% CR/CRu.
(§1) The prognosis of aggressive PTCL is dismal. Investigators have developed salvage regimens attempting to improve outcomes for patients with relapsed or refractory disease. One such regimen frequently used is ifosfamide, carboplatin, and etoposide (ICE) or ICE-based regimens (eg, and rituximab-ICE [RICE] and dexamethasome-ICE [DICE]). These regimens can have response rates approaching 70% and patients may proceed to a stem cell transplant, yet most patients tend to relapse quickly (Horwitz et al Blood 2005; 106:a2679). Thus, optimal approaches for patients with relapsed or refractory disease are needed, and agents based on a unique mechanism of action warrant study. This analysis was conducted to determine if pralatrexate offered a beneficial treatment option for patients after treatment with an ICE/RICE/DICE regimen. Methods: Pralatrexate was administered via intravenous push over 3 to 5 minutes at 30 mg/m^2/week for six weeks in 7-week cycles with concurrent 1 mg vitamin B12 intramuscular every 8 to 10 weeks and folic acid 1.0 to 1.25 mg by mouth once daily. 109 patients were treated with pralatrexate in the PROPEL study. All patients in the PROPEL study had received at least 1 prior therapy for PTCL. A subset of 20 patients had received ICE, RICE or DICE at some point prior to treatment with pralatrexate. The efficacy in these patients was compared to the remainder of the patient population who had not received ICE/RICE/DICE as a therapy for PTCL prior to pralatrexate (n=89). The patient population that previously received an ICE-based regimen was heavily pretreated with am edian of 3 prior systemic regimens (range, 2-11). The median age was 45 years, a younger patient population compared with the overall PROPEL population (59 years).
(§2) The pivotal PROPEL study of pralatrexate (FOLOTYN®) in patients with relapsed or refractory PTCL reported a rapid response to treatment in a heavily pretreated patient population. The majority of patients (63% of responders) responded by their first assessment at 7 weeks (the end of cycle 1). The present analysis assessed if there were any unique characteristics of patients who were unable to complete the first cycle of therapy and to assess the outcomes of patients who received ≧1 or ≧2 cycles of pralatrexate. Pralatrexate, a folate analog targeting dihydrofolate reductase, was approved in the United States for treatment of relapsed or refractory PTCL based on the PROPEL study. Methods: In PROPEL, patients received 30 mg/m^2 pralatrexate once weekly for 6 weeks in successive 7-week cycles. […] Cycle completion was determined receiving ≧1 dose in the following cycle. Thus, the subgroup of patients who completed ≧1 (n=64) includes those patients who only completed 1 cycle+the 43 who completed ≧2 cycles of treatment. […] However, the patients not completing cycle lwere more likely to have the angioimmunoblastic subtype (20% vs 6%). Patients in each subgroup received a median of 3 prior treatment regimens.

relapsed/refractory PTCL [2] = experiment: PROPEL subset analysis: patients previously treated with ICE-based regimens (N=20) vs other patients (n=89)
From the text: as §1
ORR, duration of response, and progression-free survival (PFS) by independent central review and investigator assessment, and OS, are presented in Table 6. Details of the patients who responded to pralatrexate according to assessment by independent central review are provided in Table 7.

relapsed/refractory PTCL [3] = experiment: PROPEL analysis by treatment duration (<1, ≧1, ≧2 cycles of pralatrexate): efficacy; details: for Median PFS by Central Review (months): Kaplan-Meier
Procedure: as §2

[4] = 20 patients with prior ICE/RICE/DICE
[5] = individual responders previously treated with ICE (N=8), central review, some values censored
[6] = of the 8 patients who did not respond to ICE as most recent therapy
[7] = prior ICE-based regimen, N=20, independent central review
[8] = prior ICE-based regimen, N=20, independent central review, Kaplan-Meier
[9] = prior ICE-based regimen, N=20, investigator assessment
[10] = prior ICE-based regimen, N=20, investigator assessment, Kaplan-Meier
[11] = Treatment Duration <1 cycle (n=45)
[12] = Treatment Duration ≧1 cycle (n=64)
[13] = Treatment Duration ≧2 cycles (n=43)

C#CCC(Cc1cnc2nc(N)nc(N)c2n1)c1ccc(C(=O)N[C@@H](CCC(=O)O)C(=O)O)cc1 (mixture of isomers) [Pralatrexate, (2S)-2-[[4-[(1RS)-1-[(2,4-diaminopteridin-6-yl)methyl]but-3-ynyl]benzoyl]amino]pentanedioic acid]
Responders who responded by their first assessment at 7 weeks (end of cycle 1) ([1]; % of responders): 63% | CR/CRu (complete response/complete response unconfirmed) by independent central review ([1]; all 109 patients): 11% | CR/CRu by investigator assessment ([1]; all 109 patients): 18% | Median duration of PFS by central review ([1]; all 109 patients): 3.5 months | Median duration of PFS by investigator assessment ([1]; all 109 patients): 4.0 months | Median duration of response by central review ([1]; all 109 patients): 10.1 months | Median duration of response by investigator assessment ([1]; all 109 patients): 8.1 months | ORR by investigator assessment ([1]; all 109 patients): 39% | Objective response rate (ORR) by independent central review using International Workshop Criteria ([1]; all 109 patients): 29% | CR/CRu based on investigators assessment (relapsed/refractory PTCL [2]; [4]): 25% | Complete responses [CR] by independent central review (relapsed/refractory PTCL [2]; [4]): 15% | ORR based on investigators assessment (relapsed/refractory PTCL [2]; [4]): 40% | Overall response rate (ORR) by independent central review (relapsed/refractory PTCL [2]; [4]): 40% | Median PFS in the 20 patients relative to that of the other patients (relapsed/refractory PTCL [2]; central review): over 3 times | Duration of Response (months) (relapsed/refractory PTCL [2]; [5]): 17.1^b months and 13.1 months and 10.1 months and 3.4 months and 1.6 months | PFS (months) (relapsed/refractory PTCL [2]; [5]): 14.4 months and 17.8 months and 4.8 months and 3.0 months | Duration of Response (months) (relapsed/refractory PTCL [2]; individual responders previously treated with ICE (N=8), central review, some values censored, listed as pralatrexate): 1.3 months and 4.9 months | CR to pralatrexate (relapsed/refractory PTCL [2]; [6]): 2 patients | PR to pralatrexate (relapsed/refractory PTCL [2]; [6]): 1 patients | Patients who responded to pralatrexate (relapsed/refractory PTCL [2]; [6]): 3 patients | Patients who responded to pralatrexate (relapsed/refractory PTCL [2]; of the 15 patients who did not have a response to a prior ICE-based regimen): 40% | Patients who proceeded to a stem cell transplant upon attaining a response to pralatrexate (relapsed/refractory PTCL [2]; of the 20 patients with prior ICE/RICE/DICE): Two | CR/CRu based on investigators assessment (relapsed/refractory PTCL [2]; other 89 patients): 17% | CR/CRu by independent central review (relapsed/refractory PTCL [2]; other 89 patients): 10% | Median PFS according to central review (relapsed/refractory PTCL [2]; other 89 patients): 3.3 months | Median duration of response by central review (relapsed/refractory PTCL [2]; other 89 patients): 9.4 months | Median duration of response per investigator assessment (relapsed/refractory PTCL [2]; other 89 patients): 6.8 months | ORR based on investigators assessment (relapsed/refractory PTCL [2]; other 89 patients): 39% | ORR by independent central review (relapsed/refractory PTCL [2]; other 89 patients (no prior ICE/RICE/DICE)): 27% | OS, Median, months (95% CI) (relapsed/refractory PTCL [2]; prior ICE-based regimen, N=20, Kaplan-Meier): 12.0 (5.2, 23.4) months | Duration of response, Range (relapsed/refractory PTCL [2]; [7]): 1.3-22.1 months | Tumor response: CR (relapsed/refractory PTCL [2]; [7]): 3 (15) n (%) | Tumor response: ORR (CR + PR) (relapsed/refractory PTCL [2]; [7]): 8 (40) n (%) | Tumor response: PD (relapsed/refractory PTCL [2]; [7]): 4 (20) n (%) | Tumor response: PR (relapsed/refractory PTCL [2]; [7]): 5 (25) n (%) | Tumor response: SD (relapsed/refractory PTCL [2]; [7]): 2 (10) n (%) | Duration of response, Median, months (95% CI) (relapsed/refractory PTCL [2]; [8]): 13.1 months and 13.1 (3.4, NA) months | PFS, Median, months (95% CI) (relapsed/refractory PTCL [2]; [8]): 14.4 months and 14.4 (1.5, NA) months | Tumor response: CR (relapsed/refractory PTCL [2]; [9]): 5 (25) n (%) | Tumor response: NA (not assessable) (relapsed/refractory PTCL [2]; [9]): 1 (5) n (%) | Tumor response: ORR (CR + PR) (relapsed/refractory PTCL [2]; [9]): 8 (40) n (%) | Tumor response: PD (relapsed/refractory PTCL [2]; [9]): 6 (30) n (%) | Tumor response: PR (relapsed/refractory PTCL [2]; [9]): 3 (15) n (%) | Tumor response: SD (relapsed/refractory PTCL [2]; [9]): 5 (25) n (%) | Duration of response, Median, months (95% CI) (relapsed/refractory PTCL [2]; [10]): 16.2 months and 16.2 (3.4, NA) months | PFS, Median, months (95% CI) (relapsed/refractory PTCL [2]; [10]): 4.8 (2.5, 14.4) months | OS, Range (relapsed/refractory PTCL [2]; prior ICE-based regimen, N=20, survival follow up ended at two years): 1.1-24.0^d months | Median OS (months) (relapsed/refractory PTCL [3]; [11]): 8.2 months | ORR by Central Review (CR + CRu + PR) (relapsed/refractory PTCL [3]; [11]): 7% | ORR by Investigator Assessment (CR + CRu + PR) (relapsed/refractory PTCL [3]; [11]): 7% | Median PFS by Central Review (months) (relapsed/refractory PTCL [3]; [11]): 1.3 months | Median Duration of Response by Central Review (months) (relapsed/refractory PTCL [3]; [12]): 10.1 months | Median OS (months) (relapsed/refractory PTCL [3]; [12]): 20.5 months | ORR by Central Review (CR + CRu + PR) (relapsed/refractory PTCL [3]; [12]): 45% | ORR by Investigator Assessment (CR + CRu + PR) (relapsed/refractory PTCL [3]; [12]): 63% | Median PFS by Central Review (months) (relapsed/refractory PTCL [3]; [12]): 4.9 months | Median Duration of Response by Central Review (months) (relapsed/refractory PTCL [3]; [13]): 13.1 months | Median OS (months) (relapsed/refractory PTCL [3]; [13]): 22.9 months | ORR by Central Review (CR + CRu + PR) (relapsed/refractory PTCL [3]; [13]): 54% | ORR by Investigator Assessment (CR + CRu + PR) (relapsed/refractory PTCL [3]; [13]): 70% | Median PFS by Central Review (months) (relapsed/refractory PTCL [3]; [13]): 8.1 months
